Data: PubChem BioAssay AID1845202 (Molecular Pharmacology Branch, DTP, NCI, 2023)

Test system: DMS 114 tumor spheroids, viability % test/control
Test: Anticancer human tumor DMS 114 cell line growth inhibition;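 also: spheroids exposed to compounds for 7 days before read-out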;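 as to viability, T/C: luminescence used as a proxy for viable cells; 100% = DMSO vehicle control viability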
Settings: spheroids with HUVEC and MSC; for IC50: curve of first compound; for viability, T/C: stronger effect = lower value
Outline: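 Complex spheroids of malignant cells with endothelial cells and mesenchymal stem cells; agents alone or combined, from near clinical Cmax (or 10 microM if unknown) down in half-log steps, 0.25% DMSO final.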

[1] = second compound 30 pM, first compound 0.00949 µM
[2] = second compound 30 pM, first compound 0.03 µM
[3] = second compound 30 pM, first compound 0.0949 µM
[4] = second compound 30 pM, first compound 0.3 µM
[5] = second compound 30 pM, first compound 0.949 µM
[6] = second compound 30 pM, first compound 3 µM
[7] = second compound 94.9 pM, first compound 0.00949 µM
[8] = second compound 94.9 pM, first compound 0.03 µM
[9] = second compound 94.9 pM, first compound 0.0949 µM
[10] = second compound 94.9 pM, first compound 0.3 µM
[11] = second compound 94.9 pM, first compound 0.949 µM
[12] = second compound 94.9 pM, first compound 3 µM
[13] = second compound 0.0003 µM, first compound 0.00949 µM
[14] = second compound 0.0003 µM, first compound 0.03 µM
[15] = second compound 0.0003 µM, first compound 0.0949 µM
[16] = second compound 0.0003 µM, first compound 0.3 µM
[17] = second compound 0.0003 µM, first compound 0.949 µM
[18] = second compound 0.0003 µM, first compound 3 µM
[19] = second compound 0.000949 µM, first compound 0.00949 µM
[20] = second compound 0.000949 µM, first compound 0.03 µM
[21] = second compound 0.000949 µM, first compound 0.0949 µM
[22] = second compound 0.000949 µM, first compound 0.3 µM
[23] = second compound 0.000949 µM, first compound 0.949 µM
[24] = second compound 0.000949 µM, first compound 3 µM
[25] = second compound 0.003 µM, first compound 0.00949 µM
[26] = second compound 0.003 µM, first compound 0.03 µM
[27] = second compound 0.003 µM, first compound 0.0949 µM
[28] = second compound 0.003 µM, first compound 0.3 µM
[29] = second compound 0.003 µM, first compound 0.949 µM
[30] = second compound 0.003 µM, first compound 3 µM

Compound | IC50 (second compound 30 pM) | IC50 (second compound 94.9 pM) | IC50 (second compound 0.0003 µM) | IC50 (second compound 0.000949 µM) | IC50 (second compound 0.003 µM) | viability, T/C [3] | viability, T/C [4] | viability, T/C [5] | viability, T/C [6] | viability, T/C [9] | viability, T/C [10] | viability, T/C [11] | viability, T/C [12] | viability, T/C [15] | viability, T/C [16] | viability, T/C [17] | viability, T/C [18] | viability, T/C [21] | viability, T/C [22] | viability, T/C [23] | further results
CNCc1ccc(-c2cc(-c3nc(-c4ccc(S(=O)(=O)C(C)C)cc4)cnc3N)on2)cc1 + COc1cc2c(cc1O)CCNC21CSC2c3c(OC(C)=O)c(C)c4c(c3C(COC1=O)N1C(O)C3Cc5cc(C)c(OC)c(O)c5C(C21)N3C)OCO4 | 115 nM | 65 nM | < 9.49 nM | < 9.49 nM | < 9.49 nM | 53.1% | 20.8% | 2.84% | 0.19% | 41.3% | 12.2% | 2.28% | 0.17% | 17.8% | 11.7% | 1.89% | 0.25% | 3.57% | 3.71% | 0.67% | viability, T/C [1]: 96.4%; viability, T/C [2]: 94.3%; viability, T/C [7]: 93.9%; viability, T/C [8]: 70.5%; viability, T/C [13]: 38.6%; viability, T/C [14]: 28.3%; viability, T/C [19]: 4.46%; viability, T/C [20]: 4.77%; viability, T/C [24]: 0.15%; viability, T/C [25]: 0.28%; viability, T/C [26]: 0.28%; viability, T/C [27]: 0.31%; viability, T/C [28]: 0.26%; viability, T/C [29]: 0.23%; viability, T/C [30]: 0.25%
Cc1sc2c(c1C)C(c1ccc(Cl)cc1)=NC(CC(=O)Nc1ccc(O)cc1)c1nnc(C)n1-2 (stereo not given) + COc1cc2c(cc1O)CCNC21CSC2c3c(OC(C)=O)c(C)c4c(c3C(COC1=O)N1C(O)C3Cc5cc(C)c(OC)c(O)c5C(C21)N3C)OCO4 | 165 nM | 97.3 nM | < 9.49 nM | < 9.49 nM | < 9.49 nM | 65.1% | 33.3% | 5.12% | 3.29% | 55.4% | 12.1% | 5.83% | 1.91% | 13.1% | 5.79% | 1.67% | 0.76% | 1.35% | 0.73% | 0.39% | viability, T/C [1]: 107%; viability, T/C [2]: 102%; viability, T/C [7]: 101%; viability, T/C [8]: 80.1%; viability, T/C [13]: 41.7%; viability, T/C [14]: 27.1%; viability, T/C [19]: 3.12%; viability, T/C [20]: 1.58%; viability, T/C [24]: 0.19%; viability, T/C [25]: 0.2%; viability, T/C [26]: 0.19%; viability, T/C [27]: 0.17%; viability, T/C [28]: 0.13%; viability, T/C [29]: 0.16%; viability, T/C [30]: 0.3%
Cn1ncnc1[C@H]1c2n[nH]c(=O)c3cc(F)cc(c23)N[C@@H]1c1ccc(F)cc1 + COc1cc2c(cc1O)CCNC21CSC2c3c(OC(C)=O)c(C)c4c(c3C(COC1=O)N1C(O)C3Cc5cc(C)c(OC)c(O)c5C(C21)N3C)OCO4 | 428 nM | 104 nM | < 9.49 nM | < 9.49 nM | < 9.49 nM | 78.4% | 59.6% | 29.9% | 10.4% | 54.6% | 33.3% | 16.5% | 7.38% | 17.8% | 16.6% | 10.7% | 5.92% | 3.4% | 2.16% | 1.41% | viability, T/C [1]: 91.6%; viability, T/C [2]: 91%; viability, T/C [7]: 79.2%; viability, T/C [8]: 63.3%; viability, T/C [13]: 21.8%; viability, T/C [14]: 20.3%; viability, T/C [19]: 2.67%; viability, T/C [20]: 3.65%; viability, T/C [24]: 0.78%; viability, T/C [25]: 0.32%; viability, T/C [26]: 0.33%; viability, T/C [27]: 0.3%; viability, T/C [28]: 0.32%; viability, T/C [29]: 0.28%; viability, T/C [30]: 0.49%
O=C(c1cc(Cc2n[nH]c(=O)c3ccccc23)ccc1F)N1CCN(C(=O)C2CC2)CC1 + COc1cc2c(cc1O)CCNC21CSC2c3c(OC(C)=O)c(C)c4c(c3C(COC1=O)N1C(O)C3Cc5cc(C)c(OC)c(O)c5C(C21)N3C)OCO4 | 5540 nM | 3670 nM | < 94.9 nM | < 94.9 nM | < 94.9 nM | 106% | 103% | 97.1% | 83.8% | 92.3% | 94.6% | 88.1% | 57.2% | 29.5% | 21.9% | 23.2% | 14.8% | 3.19% | 2.4% | 2.21% | viability, T/C (second compound 30 pM, first compound 9.49 µM): 20.2%; viability, T/C (second compound 30 pM, first compound 30 µM): 17.4%; viability, T/C (second compound 94.9 pM, first compound 9.49 µM): 17.3%; viability, T/C (second compound 94.9 pM, first compound 30 µM): 13.7%; viability, T/C (second compound 0.0003 µM, first compound 9.49 µM): 7.77%; viability, T/C (second compound 0.0003 µM, first compound 30 µM): 7.92%; viability, T/C [24]: 2.86%; viability, T/C (second compound 0.000949 µM, first compound 9.49 µM): 1.24%; viability, T/C (second compound 0.000949 µM, first compound 30 µM): 0.5%; viability, T/C [27]: 0.24%; viability, T/C [28]: 0.22%; viability, T/C [29]: 0.19%; viability, T/C [30]: 0.2%; viability, T/C (second compound 0.003 µM, first compound 9.49 µM): 0.19%; viability, T/C (second compound 0.003 µM, first compound 30 µM): 0.4%
